# US6900200B2, “Tricyclic hydroxy carboxamides and derivatives thereof tocolytic oxytocin receptor antagonists” (Wyeth, priority 2001, dated 2005)
compound,measurement,value
"COc1cc(C(=O)N2Cc3ccc(C(=O)N(C)C[C@H](O)[C@@H](O)[C@@H](O)[C@H](O)CO)n3Cc3ccccc32)ccc1-c1ccccc1C(F)(F)F [Example 23, 10-{[2-Methoxy-2′-trifluoromethyl-[1,1′-biphenyl]-4-yl]carbonyl}-N-methyl-N-[(2R,3S,4R,5S)-2,3,4,5,6-pentahydroxyhexyl]-10,11-dihydro-5H-pyrrolo[2,1-c][1,4]benzodiazepine-3-carboxamide]",melting point,132 to 140 °C (dec.)
